From US4667019A, “Azo dyes containing a triazolyl group for use in liquid crystalline materials” (Kernforschungszentrum Karlsruhe GmbH, priority 1986, dated 1987)

Assays:
Type in all cases: physicochemical
[1] = degree of order S (dichroic ratio CR) in ZLI 1840 at room temperature; parameters: key: S = (CR-1)/(CR+2), with CR = E∥/E⊥ dichroic ratio; conditions: ZLI 1840 wide-range mixture (Merck)
Protocol: (§1) The degrees of order S and the solubilities L, both measured at room temperature in the ZLI 1840 wide-range mixture from Merck, are summarized in Table 1 for Examples 1-18. The degrees of order S and the solubilities L for Examples 19-32, measured at room temperature in the […] liquid crystal mixture from Merck, are summarized in Table 3.
(§2) The degree of order S was determined in accordance with the known equation S=(CR-1)/(CR+2), using commercial measuring cells with homogeneous edge orientation. The dichroic ratio CR was determined by measuring the extinctions E^.parallel. (measured using polarized light parallel to the preferred direction of the nematic phase) and E^.perp. (measured using polarized light perpendicular to the preferred direction of the nematic phase) and using the relationship CR=E^.parallel. /E^.perp. the dye concentration being chosen so that E^.parallel. was from 1 to 2. The measurements were carried out using a Beckman Acta CIII spectrophotometer.

[2] = solubility L in ZLI 1840 at room temperature; conditions: ZLI 1840 (Merck), stirred 1 week
Protocol: as §1
(§3) The solubility was determined as follows: 50 mg of the particular dye were stirred into 1 ml of ZLI 1840 at room temperature for 1 week, and saturation of the soluton was determined by comparing extinction values.

[3] = degree of order S (dichroic ratio CR) in ZLI 1957/5 at room temperature; conditions: ZLI 1957/5 liquid crystal mixture (Merck)
Protocol: as §1, §2

[4] = solubility L in ZLI 1957/5 at room temperature; conditions: ZLI 1957/5 liquid crystal mixture (Merck)
Protocol: as §1, §3

[5] = light-stability, high-speed exposure of the measuring cell in a Suntest; conditions: 25° C
Protocol: The light-stability was determined by high-speed exposure of the measuring cell in a Suntest from Hanau, at 25° C. In this procedure, the decrease in E^.parallel. was measured. The initial extinction E^.parallel. and the exposure time E^.parallel.80% after which E^.parallel. has decreased to 80% are shown in Table 2 for Examples 5, 8, 9, 10, 11, 12, 13, 14 and 15. The percentage change in E^.parallel.0 is plotted against the exposure time in FIGS. 2, 3 and 4 for Examples 8, 11 and 15.

Degree of order S [1]	Solubility L [2]	Degree of order S [3]	Solubility L [4]	exposure time E∥80% after which E∥ has decreased to 80% [5]	SMILES
0,76	2,0%				Cc1ccc2nn(-c3ccc(N=Nc4ccc(N=Nc5ccc(N(C)C)cc5C)cc4C)cc3C)nc2c1 [Example 26]
0,74	0,6%				Cc1ccc2nn(-c3ccc(N=Nc4cc(C)c(N=Nc5ccc(OCc6ccccc6)cc5C)cc4C)cc3C)nc2c1 [Example 17]
0,64					Cc1nn(-c2ccc(N=Nc3ccc(N4CCOCC4)cc3)cc2)nc1C [Example 1]
		0,72	1,5%		Cc1ccc2nn(-c3ccc(N=Nc4ccc(N=Nc5ccc(N(C)CC(C)C)cc5C)cc4C)cc3C)nc2c1 [Example 28]
0,77	2,9%				CCC1CCC(c2ccc(COc3ccc(N=Nc4cc(C)c(N=Nc5ccc(-n6nc7ccc(C)cc7n6)c(C)c5)cc4C)c(C)c3)cc2)CC1 (stereo not shown) [Example 18]
0,65	0,1%				CCCCc1ccc2nn(-c3ccc(N=Nc4cc(C)c(N=Nc5ccc(N(C)C)c6ccccc56)cc4C)cc3C)nc2c1 [Example 32]
0,74	0,5%			27,5 h	CCOC(=O)c1nn(-c2ccc(N=Nc3ccc(N=Nc4ccc(N(C)C)cc4)c4ccccc34)cc2)nc1C [Example 8]
				170 h	Cc1ccc2nn(-c3ccc(N=Nc4ccc(N=Nc5ccc(N)cc5C)cc4C)cc3C)nc2c1 [Example 11]
0,79	2,8%			68 h	CCCCc1ccc2nn(-c3ccc(N=Nc4ccc(N=Nc5ccc(N(C)C)cc5)cc4C)cc3C)nc2c1 [Example 15]
		0,74	2,0%		CCCCN(C)c1ccc(N=Nc2cc(C)c(N=Nc3ccc(-n4nc5ccc(C)cc5n4)c(C)c3)cc2C)cc1 [Example 20]
		0,67	0,3%		CCCCN(C)c1ccc(N=Nc2cc(OC)c(N=Nc3ccc(-n4nc5ccc(C)cc5n4)c(C)c3)cc2OC)cc1 [Example 30]
0,79	1,9%				Cc1ccc2nn(-c3ccc(N=Nc4ccc(N=Nc5ccc(NCc6ccccc6)cc5)cc4C)cc3C)nc2c1 [Example 23]
0,74	> 5%			97 h	CCCCN(CCCC)c1ccc(N=Nc2ccc(N=Nc3ccc(-n4nc5ccc(C)cc5n4)c(C)c3)c(C)c2)cc1 [Example 13]
0,73	0,6%			147 h	Cc1ccc2nn(-c3ccc(N=Nc4cc(C)c(N=Nc5ccc(N(C)C)cc5)cc4C)cc3)nc2c1 [Example 10]
0,61	1,8%				Cc1nn(-c2cc(Br)c(N=Nc3ccc(N=Nc4ccc(N(C)C)cc4)cc3)c(Br)c2)nc1C [Example 6]
0,76	0,3%				CCCCOC(=O)c1ccc2nn(-c3ccc(N=Nc4cc(C)c(N=Nc5ccc(N(C)C)cc5)cc4C)cc3C)nc2c1 [Example 19]

Degree of order S [1]	Solubility L [2]	Degree of order S [3]	Solubility L [4]	exposure time E∥80% after which E∥ has decreased to 80% [5]	SMILES
0,74	< 0,1%				Cc1nn(-c2cc(C#N)c(N=Nc3ccc(N=Nc4ccc(N(C)C)cc4)cc3)c(C#N)c2)nc1C [Example 7]
0,76	2,8%				Cc1ccc2nn(-c3ccc(N=Nc4ccc(N=Nc5ccc(N(C)C)cc5)cc4C)cc3C)nc2c1 [Example 21]
0,76	1,9%				Cc1ccc2nn(-c3ccc(N=Nc4ccc(N=Nc5ccc(N(C)Cc6ccccc6)cc5)cc4C)cc3C)nc2c1 [Example 25]
0,70	2,0%				CCCCc1ccc2nn(-c3ccc(N=Nc4cc(C)c(N=Nc5ccc(NC)c6ccccc56)cc4C)cc3C)nc2c1 [Example 31]
0,76	0,5%			111 h	Cc1ccc2nn(-c3cc(C)c(N=Nc4cc(C)c(N=Nc5ccc(N(C)C)cc5)cc4C)cc3C)nc2c1 [Example 9]
0,71	1,4%				CN(C)c1ccc(N=Nc2ccc(-n3nc4c(n3)CCCC4)cc2)cc1 [Example 2]
0,70	0,7%				COc1cc(N=Nc2ccc(N(C)C)cc2)ccc1N=Nc1ccc(-n2nc(C)c(C)n2)cc1 [Example 4]
0,75	3,9%				CCCCc1ccc2nn(-c3ccc(N=Nc4ccc(N=Nc5ccc(N(C)C)cc5C)cc4C)cc3C)nc2c1 [Example 27]
		0,71	0,5%		CCCCN(C)c1ccc(N=Nc2cc(C)c(N=Nc3ccc(-n4nc5ccc(C)cc5n4)c(C)c3)cc2OC)cc1 [Example 29]
0,74	0,5%				CCCCOc1ccc(N=Nc2ccc(N=Nc3ccc(-n4nc5ccc(C)cc5n4)c(C)c3)c(C)c2)c(C)c1 [Example 16]
0,77	> 5%				CCCCNc1ccc(N=Nc2ccc(N=Nc3ccc(-n4nc5ccc(C)cc5n4)c(C)c3)c(C)c2)cc1 [Example 22]
0,74	0,4%				Cc1nn(-c2ccc(N=Nc3ccc(N=Nc4ccc(N(C)C)cc4)cc3)cc2)nc1C [Example 3]
0,77	> 5%				CCCCN(C)c1ccc(N=Nc2ccc(N=Nc3ccc(-n4nc5ccc(C)cc5n4)c(C)c3)c(C)c2)cc1 [Example 24]
0,76	> 2,3%			111 h	CCCCc1ccc2nn(-c3ccc(N=Nc4cc(C)c(N=Nc5ccc(N(C)C)cc5)cc4C)cc3C)nc2c1 [Example 14]
0,73	0,2%			101 h	CCOC(=O)c1nn(-c2ccc(N=Nc3cc(C)c(N=Nc4ccc(N(C)C)cc4)cc3C)cc2)nc1C [Example 5]
